# A melting point compilation (Tetko et al.; mined from patent text by program, amines drawn as free bases though some values may be those of a salt)
row,Compound,melting point
1,Cc1ccc(-c2nc(C#N)cc3c4cccc5c4n(c23)CCC5)cc1,217 to 218 °C
2,CN(c1cccc2cc(-c3nccs3)[nH]c12)S(=O)(=O)c1ccsc1C(C)(C)O,153 °C
3,CCN=C1NC(=O)C(OC)(c2nsc3ccc(-n4c(=O)cc(C(F)(F)F)n(C)c4=O)cc23)N1 (stereo not drawn),205 °C
4,CCN(C(=O)Nc1ccc(OC(F)(F)F)cc1)C1Cc2ccc(SC(C)(C)C(=O)O)cc2C1 (stereo not drawn),73 to 77 °C
5,Cc1cc(C2=NOC(c3cc(Cl)cc(Cl)c3)(C(F)(F)F)C2)ccc1C(=O)Nc1cncnc1 (stereo not drawn),207 to 211 °C
6,Cc1cc(C2=NOC(c3cc(Cl)cc(Cl)c3)(C(F)(F)F)C2)ccc1Br (stereo not drawn),105 to 108 °C
7,Cc1ccc(-c2cccc(/C=C/C(=O)Nc3ccc(CN(C)CC#N)cc3)c2)cc1,163 to 165 °C
8,CN(CC(=O)O)C(=S)c1ccc(Cl)cc1,72 to 73 °C
9,CC(C)C(C)(C)N1N=C([O-])O[NH2+]1,38 °C
10,CCN(CC)C(=O)Cc1c(-c2ccc(OC)cc2)nn2c(C)cc(C)nc12,120 to 124 °C
11,CCN(CC)C(=O)CCCC1CCN(Cc2cnc3c(C)c(NC(=O)c4ccc(-c5ccc(F)cc5)cc4)ccc3c2)CC1,145 to 146 °C
12,CC(C)CNC(=O)CN1CCN(Cc2ccc3c(c2)NC(=O)C(C)O3)CC1 (stereo not drawn),150 °C
13,CCCCCCCCCCCc1[nH]c2cc(C(=O)OC)ccc2c1C=O,147 to 149 °C
14,COCn1c(C(N)=O)c(OC(C)C)c2cc(OC)ccc21,145 to 147 °C
15,CCN1C(=O)CC(=O)N(CC)C1=O,52 °C
16,CCCNc1nc(NCCC)nc(Nc2ccc(OC)c(F)c2)n1,53 to 55 °C
17,N=C1CN(c2ccccc2)C(=N)O1,117 to 119 °C
18,Cc1cc(C2=NOC(c3cc(Cl)cc(Cl)c3)(C(F)(F)F)C2)ccc1C(=O)Nc1ncc(Cl)cn1 (stereo not drawn),137 to 141 °C
19,O=c1c2cc(Oc3ccc(Cl)cc3)ccc2nnn1Cc1cccnc1,134 to 136 °C

# Continued, values first:
row,melting point,Compound
1,191 to 192 °C,CCCc1nc2c(N)nc3cc(-c4ccccc4)ccc3c2n1CCCC(C)=NOC
2,142 to 146 °C,COc1ccccc1N1CCN(CCCNC(=O)c2cccc3c(=O)c(C)c(CCc4ccccc4)oc23)CC1
3,109 °C,NS(=O)(=O)c1cccc(CCO)c1
4,129 to 131 °C,OCc1cc(-c2nnc3c4ccccc4c(OCc4ccccn4)nn23)no1
5,75.8 to 77.2 °C,O=C(c1ccccc1)c1c(F)ccc([N+](=O)[O-])c1F
6,120 °C,CN(C)CCC1(CO)c2ccccc2N(C)c2cc(Cl)ccc21 (stereo not drawn)
7,99 to 101 °C,O=C(O)Cc1cc(F)ccc1OCCc1ccccc1
8,131 to 133 °C,CC(C)(C)OC(=O)N1CC(CCl)c2c1ccc1ccc(S(=O)(=O)N(Cc3ccccc3)Cc3ccccc3)cc21 (stereo not drawn)
9,154 °C,CCCc1nc2ccnn2cc1Cc1ccc(-c2ccccc2C#N)cc1
10,169 to 170 °C,O=c1ccc(S(=O)(=O)n2ccc3ccccc32)n[nH]1
11,68 to 76 °C,COC(=O)C(c1ccc(OCCNC(=O)C2Cc3ccccc3N2S(=O)(=O)c2ccc(-c3cccc(C(F)(F)F)c3)cc2)cc1)C(C)C (stereo not drawn)
12,273 to 278 °C,O=C(C=CC(F)(F)F)Nc1ccc2ncnc(Nc3cccc(Br)c3)c2c1
13,155 to 157 °C,COCC1CN(c2ccc3ccc(O)cc3c2)C(=O)O1 (stereo not drawn)
14,94 to 95 °C,CCOC(=O)c1c2ccc(Cl)cc2c(-c2ccccc2)n1C1=CCC(=O)C=C1
15,124 to 125 °C,CCOC(=O)Cc1nc(-c2ccc(Cl)cc2)oc1-c1ccoc1
16,146 to 148 °C,O=C(c1ccccc1)c1nc(Br)ccc1[N+](=O)[O-]
17,193 to 198 °C,COc1ccccc1-c1nsc2ccc([N+](=O)[O-])cc12
18,152 to 154 °C,CC(C)(C)OC(=O)NCC(NC(=O)OC(C)(C)C)C(=O)NCCNC(=O)OCc1ccccc1 (stereo not drawn)
19,108 to 109 °C,CCOC(=O)c1ccc(-c2nc(COc3ccc(CO)cc3OC)c(C)o2)s1
